Experimental data reported in ChEMBL document CHEMBL1141784, “Phaeochromycins A-E, anti-inflammatory polyketides isolated from the soil actinomycete Streptomyces phaeochromogenes LL-P018” (J Nat Prod, 2005).
pIC50: −log10 of the molar value.

Target: MAP kinase-activated protein kinase 2 (Homo sapiens, UniProt P49137)
Assay: Inhibition of human recombinant MK2 by ELISA

MAP kinase-activated protein kinase 2, sequence (P49137 whole entry): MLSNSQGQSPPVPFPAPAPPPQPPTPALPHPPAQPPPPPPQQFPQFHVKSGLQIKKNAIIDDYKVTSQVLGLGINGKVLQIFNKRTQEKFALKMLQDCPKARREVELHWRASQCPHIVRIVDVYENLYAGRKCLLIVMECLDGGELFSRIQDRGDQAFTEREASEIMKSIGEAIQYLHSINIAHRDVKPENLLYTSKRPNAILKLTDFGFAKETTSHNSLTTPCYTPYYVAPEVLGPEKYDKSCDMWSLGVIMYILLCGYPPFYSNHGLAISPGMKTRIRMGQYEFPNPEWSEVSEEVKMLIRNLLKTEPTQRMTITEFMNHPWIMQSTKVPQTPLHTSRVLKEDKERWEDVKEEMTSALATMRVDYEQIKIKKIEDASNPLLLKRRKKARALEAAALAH

pIC50 | Structure (SMILES)
3.89 | CCCc1cc(=O)c2c(Cc3cc(O)cc(=O)o3)cccc2o1 [PHAEOCHROMYCIN C]
4.41 | CCCc1cc(O)c2c(O)cccc2c1-c1cc(O)cc(=O)o1 [PHAEOCHROMYCINS A]
